Source: patent publication US8633168B2, “Inhibitors of S-adenosyl-L-methionine decarboxylase” (Genzyme Corporation, priority 2007, dated 2014)
Read-outs that look alike come from different tables or passages of the source.

What was measured:
[1] = system: Trypanosoma brucei rhodesiense strain STIB 900; test: Drug sensitivity assay against T. b. rhodesiense (Alamar blue); type: cell-based
Description: Trypanosoma brucei rhodesiense strain STIB 900, a clone of a population isolated in 1982 from a patient in Tanzania which is known to be susceptible to all currently used drugs was used in these assays. The bloodstream form trypomastigotes of this strain were maintained in supplemented Modified Eagle's Medium according to standard protocols (Hirumi H, Hirumi K, 1989. “Continuous cultivation of Trypanosoma brucei blood stream forms in a medium containing a low concentration of serum protein without feeder cell layers”. J Parasitol 75: 985-9).
(§1) Drug sensitivity assays were performed in sterile 96-well microtiter plates, with or without serial drug dilutions. The compounds were tested at 7 concentrations (drug concentration ranging from 90 μg/ml to 0.123 μg/ml in 3-fold dilutions). The highest concentration for the test compounds was 90 μg/ml. Each drug is tested in duplicate. After 72 hours of incubation the plates were inspected microscopically to assure growth of the controls to determine the minimum inhibitory concentration (MIC), i.e., the lowest drug concentration at which no trypanosomes with normal morphology and motility can be seen compared to control wells. Cell viability is measured by Alamar blue staining and IC50 values were calculated.
(§2) The bloodstream form trypomastigotes of the three strains are maintained according to standard protocols established at STI.
as §1, with “are” for “were”, “The” for “The compounds were tested at 7 concentrations (drug concentration ranging from 90 μg/ml to 0.123 μg/ml in 3-fold dilutions). The”, “is” for “was”
The preliminary screen used T. b. rhodesiense. The compounds were tested at 7 concentrations (drug concentration ranging from 90 μg/ml to 0.123 μg/ml in 3-fold dilutions).

[2] = Solubility in phosphate buffer; type: physicochemical
Method: A stock solution for each test compound was prepared at 25 mM in DMSO. These were diluted into phosphate buffer and equilibrated for 16 hours at room temperature, and then filtered to remove precipitated compound. The UV absorbance of this equilibrated sample was compared to a single point reference standard.

[3] = Microsomal stability, rat; type: in vitro ADME
Method: (§3) Liver microsomes and hepatocytes represent an in vitro surrogate for assessing the phase I/II metabolic stability of new discovery leads. Following the incubation of the compounds with microsomes or hepatocytes of different species (e.g., human, rat, dog, monkey, mouse), the samples were transferred to 96 well plates for quantitation using LC/MS/MS. The % of compound remaining was measured and used to calculate clearance and % hepatic blood flow.

[4] = Microsomal stability, human; type: in vitro ADME
Method: as §3

[5] = Hepatocyte stability, rat; type: in vitro ADME
Method: as §3

[6] = Hepatocyte stability, human; type: in vitro ADME
Method: as §3

[7] = molecular target: CYP3A4 (Homo sapiens, UniProt P08684); test: Cytochrome P450 inhibition, CYP3A4
Description: (§4) This cytochrome P450 high throughput IC50 inhibition assay is utilized for screening potential inhibitors of the 5 major human CYP isozyme catalytic activities (CYP3A4, 2D6, 2C9, 2C19, and 1A2).

[8] = molecular target: CYP2C9 (Homo sapiens, UniProt P11712); test: Cytochrome P450 inhibition, CYP2C9
Description: as §4

[9] = molecular target: CYP2C19 (Homo sapiens, UniProt P33261); test: Cytochrome P450 inhibition, CYP2C19
Description: as §4

[10] = Plasma protein binding (RED), human; type: in vitro ADME
Method: (§5) Rapid Equilibrium Dialysis device (RED) is a 96-well formatted dialysis with disposable inserts and Teflon base design providing short incubation time. The membrane in RED physically separates of bound and free drug. After 4 hr incubation at 37° C., drug concentrations at both plasma (e.g., human, rat, dog, monkey, mouse) and pH 7.4 PBS buffer sides was quantitated by LC/MS/MS and % bound drug in plasma was calculated.

[11] = Plasma protein binding (RED), mouse; type: in vitro ADME
Method: as §5

[12] = Mouse PK study; type: in vivo
Method: The rodent PK study designs provide reliable estimation of PK parameters using fewer animals. Often two routes, PO and IV, were included in the rodent PK study protocols with three subjects in each dosing group (often PO at 10 mg/kg and IV at 3 mg/kg).

[13] = Mouse brain exposure; type: in vivo
Method: This was determined by harvesting brains at selected time points, weighing and extracting total tissue homogenate for LC/MS/MS analysis. The amount of test compound associated with the brain was calculated by subtracting that amount attributable to blood vessels (7%, times the blood exposure levels).

[14] = system: T. b. brucei; test: Cell-based screening against T. b. brucei; parameters: species or system Trypanosoma brucei brucei
Method: as §2
as §1, with “are” for “were”, “The” for “The compounds were tested at 7 concentrations (drug concentration ranging from 90 μg/ml to 0.123 μg/ml in 3-fold dilutions). The”, “is” for “was”
Active compounds (IC50<0.2 μg/ml) are tested against the Trypanosoma brucei gambiense STIB 930 and the multi-drug resistant T. b. brucei STIB 950 following the same protocol as described above.
This example provides data relating to the biological screening results. MDL 73811 and selected new compounds 1-7 were tested against a variety of cell-based organisms and enzymes and the IC50 measured. In vitro ADME profiles were also obtained. Solubility, permeability, microsomal/hepatocyte stability, cychrome P450 inhibition and plasma protein binding characteristics were probed for each of the compounds. The methodology for these tests are described in previous paragraphs. The results are summarized in the following 2 charts.

[15] = system: T. cruzi; test: Cell-based screening against T. cruzi; conditions: Trypanosoma cruzi; Screening Data
[16] = system: L. donovani (axenic); test: Screening against L. donovani (axenic); type: cell-based; conditions: Leishmania donovani; Screening Data
[17] = system: Schistosomes adult; test: Screening against Schistosomes, adult; type: cell-based; conditions: Screening Data
[18] = system: Schistosomes lavae; test: Screening against Schistosomes, larvae; type: cell-based; conditions: Screening Data
[19] = LogD; conditions: Example 12 chart
[20] = liver microsomes, Example 12 chart

Sequence of CYP2C9 (P11712 whole entry): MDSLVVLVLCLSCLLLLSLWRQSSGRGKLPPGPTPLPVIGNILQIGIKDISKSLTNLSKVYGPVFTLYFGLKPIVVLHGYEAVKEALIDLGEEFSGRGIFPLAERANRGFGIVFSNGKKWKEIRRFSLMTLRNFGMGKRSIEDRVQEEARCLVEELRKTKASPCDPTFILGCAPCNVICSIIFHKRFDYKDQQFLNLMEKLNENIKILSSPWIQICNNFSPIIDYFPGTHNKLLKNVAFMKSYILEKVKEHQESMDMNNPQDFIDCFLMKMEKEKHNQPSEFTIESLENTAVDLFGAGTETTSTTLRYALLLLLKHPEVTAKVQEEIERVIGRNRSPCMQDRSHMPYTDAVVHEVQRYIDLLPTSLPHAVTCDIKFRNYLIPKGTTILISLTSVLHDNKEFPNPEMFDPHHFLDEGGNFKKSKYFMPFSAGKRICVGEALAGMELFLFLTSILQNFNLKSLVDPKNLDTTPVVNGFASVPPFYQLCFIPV
Sequence of CYP2C19 (P33261 whole entry): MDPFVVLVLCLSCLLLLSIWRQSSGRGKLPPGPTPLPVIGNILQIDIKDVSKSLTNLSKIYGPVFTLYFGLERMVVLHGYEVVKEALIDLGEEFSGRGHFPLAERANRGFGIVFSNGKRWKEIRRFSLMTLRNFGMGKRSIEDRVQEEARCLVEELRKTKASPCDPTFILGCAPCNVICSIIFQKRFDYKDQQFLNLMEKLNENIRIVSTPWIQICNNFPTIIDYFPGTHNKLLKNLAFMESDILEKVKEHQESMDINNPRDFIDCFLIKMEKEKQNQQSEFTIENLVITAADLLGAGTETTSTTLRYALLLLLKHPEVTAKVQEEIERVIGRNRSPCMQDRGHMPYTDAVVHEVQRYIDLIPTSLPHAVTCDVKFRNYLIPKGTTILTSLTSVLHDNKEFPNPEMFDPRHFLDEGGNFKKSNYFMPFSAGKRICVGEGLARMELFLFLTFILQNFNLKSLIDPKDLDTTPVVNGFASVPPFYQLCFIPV
Sequence of CYP3A4 (P08684 whole entry): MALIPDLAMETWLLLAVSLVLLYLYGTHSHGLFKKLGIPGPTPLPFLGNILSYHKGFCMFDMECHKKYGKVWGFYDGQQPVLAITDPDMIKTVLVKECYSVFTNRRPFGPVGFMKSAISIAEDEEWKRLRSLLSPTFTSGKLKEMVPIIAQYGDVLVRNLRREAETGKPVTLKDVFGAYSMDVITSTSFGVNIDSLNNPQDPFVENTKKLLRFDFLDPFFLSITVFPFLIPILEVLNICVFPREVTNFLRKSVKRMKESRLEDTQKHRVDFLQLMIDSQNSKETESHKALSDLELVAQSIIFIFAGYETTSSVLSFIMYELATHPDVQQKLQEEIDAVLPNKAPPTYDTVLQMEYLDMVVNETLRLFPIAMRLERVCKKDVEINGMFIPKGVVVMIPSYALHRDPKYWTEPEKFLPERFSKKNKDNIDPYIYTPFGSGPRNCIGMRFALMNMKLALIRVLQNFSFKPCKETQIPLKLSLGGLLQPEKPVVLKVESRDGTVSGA

## Cc1nc2c(N)ncnc2n1[C@@H]1O[C@H](CN(C)C/C=C\CN)[C@@H](O)[C@H]1O (stereo in doubt) [Compound 4]
[1]; Screening Data, read-out: IC50 T. b. rhod.
  IC50: 0.001 µM
[1]; Table 1, 72 hours incubation, Alamar blue, read-out: IC50 against T. b. rhodesiense (ug/mL) by STI
  IC50: 0.0004 µg/mL
[1]; Table 2, read-out: IC50 against T. b. rhodesiense (ug/mL) by STI
  IC50: 0.0004 µg/mL
[1]; Table 3, read-out: IC50 against T. brucei rhodesiense
  IC50: 0.0004 µg/mL
[1]; read-out: IC50 against T. b. rhodesiense
  IC50: 0.0004 µg/mL
[2]; Table 2, @ 7.4
  Sol.: >49 (@ 7.4) ug/ml
[2]; phosphate buffer, aqueous buffer, kinetic from dmso stock, Example 12 chart, pH 7.4
  solubility at 16 hours: > 49 µg/mL
[3]; Table 2
  Microsomal stability (CL) rat: <11 mL/min/kg
[3]; [20]
  CLint scaled: < 7.7 mL/min/kg
[4]; Table 2
  Microsomal stability (CL) human: <4.2 mL/min/kg
[4]; [20]
  CLint scaled: < 4.5 mL/min/kg
[5]; Table 2
  Hepatocyte stability (CL) rat: <11 mL/min/kg
[5]; hepatocytes, Example 12 chart
  CLint scaled: < 3.5 mL/min/kg
[6]; Table 2
  Hepatocyte stability (CL) human: <4.2 mL/min/kg
[6]; hepatocytes, Example 12 chart
  CLint scaled: < 1.7 mL/min/kg
[7]
  IC50: > 5 µM
[7]; read-out: CYP IC50 3A4, Example 12 chart
  IC50: > 5 µM
[8]
  IC50: > 5 µM
[8]; read-out: CYP IC50 2C9, Example 12 chart
  IC50: > 5 µM
[9]
  IC50: > 5 µM
[9]; read-out: CYP IC50 2C19, Example 12 chart
  IC50: > 5 µM
[10]; Example 12 chart, human
  Plasma Protein Binding % human: 41.2%
[10]; compared with MDL73811 (human and mouse plasma in Table 2)
  protein binding relative to MDL73811: approximately half
[10]; pH 7.4, Table 2, human plasma
  fraction unbound at 4 hr: 0.588
[11]; Example 12 chart, mouse
  Plasma protein binding (%) mouse: 35.7%
[11]; pH 7.4, Table 2, mouse plasma
  fraction unbound at 4 hr: 0.643
[12]; Table 3
  t/2 in mouse: 7.43 h
[12]; vs MDL-73811
  t/2, fold greater than that for MDL-73811: ~3 fold
[13]; Table 3, mouse brain
  AUC: 1180 ng·h/mL
[13]; brain relative to blood, Table 3, mouse, read-out: Mouse Brain exposure compared with blood AUC (%)
  Kp: 0.066
[13]; text b82
  percentage of brain blood barrier penetration (compared with MDL-73811): higher percentage of brain blood barrier penetration
[13]; vs MDL73811
  mouse brain exposure, fold greater than for MDL 73811: ~4 fold
[14]; Trypanosoma brucei, Screening Data, two values per compound
  IC50: 0.027 µM
[14]; vs MDL73811
  potency against T. b. brucei, fold greater than that of MDL73811: 10 fold
[15]
  IC50: > 85 µM
[16]
  IC50: > 85 µM
[17]
  IC50: > 10 µM
[18]
  IC50: > 10 µM
[19]
  logD: −1.4
